This note sets out measurements from BindingDB's records for doi:10.1021/acs.biochem.5b00106 (Louis Stokes Cleveland Veterans Affairs Medical Center, 2015).

Experiment [1] has as its target Metallo-beta-lactamase VIM-2 (Klebsiella pneumoniae, UniProt Q3Y6Q3). Briefly: Direct Competition Assay. The method, then: (§1) The Ki for each inhibitor was determined by direct competition assays under steady-state conditions. The initial velocity was measured in the presence of a constant concentration of enzyme (3 nM for VIM-2 and 4 nM for VIM-24) with increasing concentrations of inhibitor (5−60 μM) against a fixed concentration (5KM) of the indicator substrate, NCF, as previously described. The reactionswere started by addition of VIM-2 or VIM-24 to substrate or to mixtures of substrate and inhibitor.

A further experiment deals with VIM-24 (Klebsiella pneumoniae, UniProt E0AFT6). Nature of the experiment: Direct Competition Assay. The protocol:
as §1

Consider `O=C(O)[C@H]1CS[C@@H]2CS[C@@H](CS)N12` [D-CS319], for which the Ki (commonly the equilibrium dissociation constant of an inhibitor or competing ligand from its target) stood at 5.4 µM in experiment [1] and 11 µM on VIM-24.

For `CC1(C)S[C@@H]2CS[C@@H](CS)N2[C@H]1C(=O)O` [D-VC26], the Ki in experiment [1] came to 14 µM; at VIM-24, 12 µM.

Take `O=C(O)[C@@H]1CS[C@H]2CS[C@H](CS)N21` [L-CS319]: the Ki in experiment [1] came out at 3.7 µM; on VIM-24 it was 6 µM.

On to `CC1(C)S[C@H]2CS[C@H](CS)N2[C@@H]1C(=O)O` [L-VC26], for which the inhibition constant Ki in experiment [1] worked out at 3.8 µM; on VIM-24, 4.9 µM.
